± gives the expanded uncertainty stated by the source.
Experiments:
[1] = 298.15 K; 101.33 kPa; Liquid; Vibrating tube method
[2] = refractive index (Na D-line) (dimensionless); conditions: 298.2 K; 101.33 kPa; Liquid; Standard Abbe refractometry
[3] = relative permittivity at zero frequency (dimensionless); conditions: 298.2 K; 101.33 kPa; Liquid; Parallel plate capacitor

Row | SMILES | mass density [1] [kg/m3] | refractive index [2] | relative permittivity at zero frequency [3]
1 | C1CCCCC1 [cyclohexane] | 773.78 ± 0.24 | 1.4234 ± 0.0007 | 2.02 ± 0.01
2 | O [water] | – | 1.3325 ± 0.0007 | –
3 | Cc1ccccc1 [toluene] | 862.02 ± 0.24 | 1.4938 ± 0.0007 | 2.38 ± 0.01
4 | CC1CCCCC1 [methylcyclohexane] | 764.92 ± 0.24 | 1.4198 ± 0.0007 | 2.01 ± 0.01

Source: the NIST ThermoML archive (doi:10.1016/j.jct.2012.04.011)
